Biological target: T1, human IDO1 (Homo sapiens, UniProt P14902)
T1 construct: expressed in transfected cells
Assay: IDO inhibition assay in HEK293 cells stably expressing human IDO1 (kynurenine, Ehrlich reagent)
Type: cell-based
Conditions: 20 hours incubation, read-out: HEK Human IDO-1 Bio Activity
Method: They were cultured in medium (DMEM with 10% FBS) containing 1 mg/ml G418 for two weeks.
The human IDO1/HEK293 cells were seeded at 10,000 cells per 50 μL per well with RPMI/phenol red free media contains 10% FBS in a 384-well black wall clear bottom tissue culture plate (Matrix Technologies LLC) 100 nL of certain concentration of compound was then added to each well using ECHO liquid handling systems. The cells were incubated for 20 hours in 37° C. incubator with 5% CO2.
The compound treatments were stopped by adding trichloroacetic acid (Sigma-Aldrich) to a final concentration at 0.2%. The cell plate was further incubated at 50° C. for 30 minute. The equal volume supernatant (20 μL) and 0.2% (w/v) Ehrlich reagent (4-dimethylaminobenzaldehyde, Sigma-Aldrich) in glacial acetic acid were mixed in a new clear bottom 384-well plate. This plate was then incubated at room temperature for 30 minute. The absorbance at 490 nm was measured on Envision plate reader.

T1 sequence (P14902 whole entry): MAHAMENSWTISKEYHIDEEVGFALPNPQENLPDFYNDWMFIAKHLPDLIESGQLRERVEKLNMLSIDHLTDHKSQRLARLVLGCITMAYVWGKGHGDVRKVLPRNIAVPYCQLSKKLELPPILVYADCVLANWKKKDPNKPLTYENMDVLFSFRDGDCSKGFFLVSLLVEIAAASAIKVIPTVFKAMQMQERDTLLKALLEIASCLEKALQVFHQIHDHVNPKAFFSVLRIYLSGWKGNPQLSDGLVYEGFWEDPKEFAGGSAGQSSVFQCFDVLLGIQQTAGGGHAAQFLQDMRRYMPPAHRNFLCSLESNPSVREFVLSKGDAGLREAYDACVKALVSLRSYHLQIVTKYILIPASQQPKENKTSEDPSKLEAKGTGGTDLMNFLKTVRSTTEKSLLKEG

IC50 [µM]	SMILES
< 0.05	Cc1c(C2CCC(C(C)NC(=O)c3ccc(Cl)cc3)CC2)ccnc1F (single isomer, unassigned) [Example 158b, 4-chloro-N-(1-(4-(2-fluoro-3-methylpyridin-4-yl)cyclohexyl)ethyl)benzamide]
< 0.05	Cc1c(C2CCC(C(C)NC(=O)c3ccc(Cl)cc3)CC2)ccnc1F (single isomer, unassigned) [Example 158c, 4-chloro-N-(1-(4-(2-fluoro-3-methylpyridin-4-yl)cyclohexyl)ethyl)benzamide]
< 0.05	Cc1c(C2CCC(C(C)NC(=O)c3ccc(Cl)cc3)CC2)ccnc1F (single isomer, unassigned) [Example 158d, 4-chloro-N-(1-(4-(2-fluoro-3-methylpyridin-4-yl)cyclohexyl)ethyl)benzamide]
< 2	Cc1c(C2CCC(C(C)NC(=O)c3ccc(Cl)cc3)CC2)ccnc1F (single isomer, unassigned) [Example 158e, 4-chloro-N-(1-(4-(2-fluoro-3-methylpyridin-4-yl)cyclohexyl)ethyl)benzamide]
< 0.25	Cc1nccc(C2CCC(C(C)NC(=O)c3ccc(Cl)cc3)CC2)c1C (single isomer, unassigned) [Example 159b, 4-chloro-N-(1-(4-(2,3-dimethylpyridin-4-yl)cyclohexyl)ethyl)benzamide]
< 0.05	Cc1nccc(C2CCC(C(C)NC(=O)c3ccc(Cl)cc3)CC2)c1C (single isomer, unassigned) [Example 159c, 4-chloro-N-(1-(4-(2,3-dimethylpyridin-4-yl)cyclohexyl)ethyl)benzamide]
< 0.05	Cc1nccc(C2CCC(C(C)NC(=O)c3ccc(Cl)cc3)CC2)c1C (single isomer, unassigned) [Example 159d, 4-chloro-N-(1-(4-(2,3-dimethylpyridin-4-yl)cyclohexyl)ethyl)benzamide]
< 2	Cc1nccc(C2CCC(C(C)NC(=O)c3ccc(Cl)cc3)CC2)c1C (single isomer, unassigned) [Example 159e, 4-chloro-N-(1-(4-(2,3-dimethylpyridin-4-yl)cyclohexyl)ethyl)benzamide]
< 2	Cc1cnccc1C1CCC(C(C)NC(=O)c2ccc(Cl)cc2)CC1 (single isomer, unassigned) [Example 160b, 4-chloro-N-(1-(4-(3-methylpyridin-4-yl)cyclohexyl)ethyl)benzamide]
< 2	Cc1cnccc1C1CCC(C(C)NC(=O)c2ccc(Cl)cc2)CC1 (single isomer, unassigned) [Example 160c, 4-chloro-N-(1-(4-(3-methylpyridin-4-yl)cyclohexyl)ethyl)benzamide]
< 0.25	Cc1cnccc1C1CCC(C(C)NC(=O)c2ccc(Cl)cc2)CC1 (single isomer, unassigned) [Example 160d, 4-chloro-N-(1-(4-(3-methylpyridin-4-yl)cyclohexyl)ethyl)benzamide]
< 0.05	Cc1cnccc1C1CCC(C(C)NC(=O)c2ccc(Cl)cc2)CC1 (single isomer, unassigned) [Example 160e, 4-chloro-N-(1-(4-(3-methylpyridin-4-yl)cyclohexyl)ethyl)benzamide]

SMILES	IC50 [µM]
CC(NC(=O)c1ccc(Cl)cc1)C1CCC(c2ccncc2F)CC1 (single isomer, unassigned) [Example 161a, 4-chloro-N-(1-(4-(3-fluoropyridin-4-yl)cyclohexyl)ethyl)benzamide]	< 2
CC(NC(=O)c1ccc(Cl)cc1)C1CCC(c2ccncc2F)CC1 (single isomer, unassigned) [Example 161b, 4-chloro-N-(1-(4-(3-fluoropyridin-4-yl)cyclohexyl)ethyl)benzamide]	< 0.05
CC(NC(=O)c1ccc(Cl)cc1)C1CCC(c2ccncc2F)CC1 (single isomer, unassigned) [Example 161c, 4-chloro-N-(1-(4-(3-fluoropyridin-4-yl)cyclohexyl)ethyl)benzamide]	< 0.25
N#Cc1ccc(NC(=O)N[C@H]2CC[C@H](c3ccnc4ccc(F)cc43)CC2)cc1 [Example 121]	< 0.25
CCC(NC(=O)c1ccc(-c2ccccc2)cc1)[C@H]1CC[C@@H](c2cnc3ccccc3c2)CC1 (stereo partly shown) [Example 200]	< 0.25

Biological target: T2, indoleamine 2,3-dioxygenase (IDO) (Homo sapiens, UniProt P14902)
T2 construct: host or cells: HeLa cells, IDO induced with IFNγ (25 ng/mL)
Assay: HeLa cell-based indoleamine 2,3-dioxygenase (IDO) assay (IFNγ-induced kynurenine production)
Conditions: Tables 3-7; compounds shown only as drawings; read-out: Potency (IDO IC50)
Method: Assessment of inhibitor activity in HeLa cell-based indoleamine 2,3-dioxygenase (IDO) assay.
HeLa (ATCC® CCL-2) cells were obtained from the ATCC® and cultured in Dulbecco's Modified Eagle Medium supplemented with 4.5 g/L glucose, […] (#10-013-CV, Corning), 2 mM L-alanyl-L-glutamine dipeptide (#35050-061, Gibco), 100 U/mL penicillin, 100 μg/mL streptomycin (#SV30010, HyClone) and 10% fetal bovine serum (#SH30071.03 HyClone). Cells were maintained in a humidified incubator at 37° C. in 5% CO2.
IDO activity was assessed as a function of kynurenine production as follows: HeLa cells were seeded in a 96-well culture plate at a density of 5,000 cells/well and allowed to equilibrate overnight. After 24 hours, the media was aspirated and replaced with media containing IFNγ (#285-IF/CF, R&D Systems) at a final concentration of 25 ng/mL. A serial dilution of each test compound was added to the cells in a total volume of 200 μL of culture medium. After a further 48 hour incubation, 170 μL of supernatant was transferred from each well to a fresh 96-well plate. 12.1 μL of 6.1N trichloroacetic acid (#T0699, Sigma-Aldrich) was added to each well and mixed, followed by incubation at 65° C. for 20 minutes to hydrolyze N-formylkynurenine, the product of indoleamine 2,3-dioxygenase, to kynurenine. The reaction mixture was then centrifuged for 10 mins at 500×g to sediment the precipitate. 100 μL of the supernatant was transferred from each well to a fresh 96-well plate. 100 μl of 2% (w/v) p-dimethylaminobenzaldehyde (#15647-7, Sigma-Aldrich) in acetic acid (#A6283, Sigma-Aldrich) was added to each well mixed and incubated at room temperature for 20 mins. Kynurenine concentrations were determined by measuring absorbance at 480 nm and calibrating against an L-kynurenine (#K8625, Sigma-Aldrich) standard curve using a SPECTRAMAX® M2e microplate reader (Molecular Devices). The percentage activity at each inhibitor concentration was determined and IC50 values assessed using nonlinear regression.
Activity for compounds described herein is provided in Tables 3-7, wherein potency levels are provided as follows: (Potency: IDO IC50: A<0.1 μM; B<1 μM; C<10 μM)

T2 sequence (P14902 whole entry): as above

IC50 [µM]	SMILES
< 2	O=C(Nc1ccc(Cl)cc1)[C@H]1CC[C@@H](Cc2ccccc2)CC1
< 2	O=C(Nc1ccc(Cl)cc1)[C@H]1CC[C@H](Cc2ccccc2)CC1
< 2	N#Cc1ccc(NC(=O)[C@H]2CC[C@@H](Cc3ccccc3)CC2)cc1
< 2	N#Cc1ccc(NC(=O)[C@H]2CC[C@H](Cc3ccccc3)CC2)cc1
< 2	O=C(Nc1ccc(F)cc1)[C@H]1CC[C@@H](Cc2ccccc2)CC1
< 2	O=C(Nc1ccc(F)cc1)[C@H]1CC[C@H](Cc2ccccc2)CC1
< 2	COc1ccc(NC(=O)[C@H]2CC[C@@H](Cc3ccccc3)CC2)cc1
< 2	COc1ccc(NC(=O)[C@H]2CC[C@H](Cc3ccccc3)CC2)cc1
< 2	COc1ccc(C2CCC(CC(=O)NCc3ccccc3)CC2)cc1 (stereo not shown)
< 0.25	COc1ccc([C@H]2CC[C@@H](CC(=O)NCc3ccccc3)CC2)cc1
< 0.25	N#Cc1ccc(C(=O)NC[C@H]2CC[C@@H](c3ccccc3)CC2)cc1
< 0.25	O=S(=O)(NC[C@H]1CC[C@@H](c2ccccc2)CC1)c1ccc(Cl)cc1
< 0.05	N#Cc1cccc(C(=O)NC[C@H]2CC[C@@H](c3ccccc3)CC2)c1
< 2	O=C(c1ccc(Cl)cc1)N1CCC(Cc2ccccc2)CC1
< 0.25	O=C(NC[C@H]1CC[C@@H](c2ccccc2)CC1)c1ccc(Cl)cc1
< 2	O=C(c1cccc(Cl)c1)N1CCC(Cc2ccccc2)CC1
< 0.05	O=C(NC[C@H]1CC[C@@H](c2ccccc2)CC1)c1cccc(Cl)c1
< 0.05	O=C(NC[C@H]1CC[C@@H](c2ccccc2)CC1)c1ccc(F)cc1
< 0.25	COc1ccc([C@H]2CC[C@@H](CCNc3ccc(Cl)cc3)CC2)cc1

IC50 [µM]	SMILES
< 2	COc1ccc([C@H]2CC[C@H](CCNc3ccc(Cl)cc3)CC2)cc1
< 2	O=C(Nc1ccc(Cl)cc1)O[C@H]1CC[C@@H](c2ccccc2)C1
< 2	O=C(Nc1ccc(F)cc1)OC[C@H]1CC[C@@H](c2ccccc2)CC1
< 0.05	O=C(Nc1ccc(F)cc1)N[C@H]1CC[C@H](c2ccccc2)CC1
< 0.25	O=C(Nc1cccc(Cl)c1)N[C@H]1CC[C@@H](c2ccccc2)CC1
< 0.05	O=C(Nc1ccc(Cl)cc1)N[C@H]1CC[C@H](c2ccccc2)CC1
< 2	O=C(Cc1ccc(Cl)cc1)N[C@H]1CC[C@@H](c2ccccc2)CC1
< 0.05	O=C(Nc1cccc(Cl)c1)N[C@H]1CC[C@H](c2ccccc2)CC1
< 0.25	O=C(Nc1ccc(Cl)cc1)N[C@H]1CC[C@@H](c2ccccc2)CC1
< 0.05	O=C(Cc1cccc(Cl)c1)N[C@H]1CC[C@H](c2ccccc2)CC1
< 2	O=C(Nc1ccc(Cl)cc1)N1CCC(Oc2ccccc2)CC1
< 0.25	O=C(Nc1ccc(Cl)cc1)C1CCC(Oc2ccccc2)CC1 (stereo not shown)
< 0.25	COc1ccc([C@H]2CC[C@H](NC(=O)Cc3ccc(Cl)cc3)CC2)cc1
< 0.05	O=S(=O)(CC1CCC(c2ccnc3ccccc23)CC1)Nc1ccc(Cl)cc1 (stereo not shown)
< 0.05	COc1ccc(C2CCC(CC(Nc3ccc(F)cc3)C(F)(F)F)CC2)cc1 (stereo not shown)
< 0.05	COc1ccc(C2CCC(CC(Nc3ccc(Cl)cc3)C(F)(F)F)CC2)cc1 (stereo not shown)
< 0.25	N#Cc1ccc(CC(=O)N[C@H]2CC[C@H](c3ccccc3)CC2)cc1
< 0.05	CC(C(=O)N[C@H]1CC[C@H](c2ccccc2)CC1)c1ccc(C#N)cc1 (stereo partly shown)
< 0.25	O=C(Cc1ccc(Cl)cc1)N[C@H]1CC[C@H](c2ccnc3ccccc32)CC1
